# Laboratory results published in patent US7622269B2, “Methods of screening tyramine- and octopamine-expressing cells for compounds and compositions having potential insect control activity” (Tyratech, Inc., priority 2004, dated 2009).
# Test system: octopamine synthesis mutant (iav) Drosophila melanogaster strain
# Type: in vivo
# Conditions: for toxicity in iav strain compared with wild type: in vivo; for % Mortality at LD50 of wild/type Drosophila melanogaster strain, iav: topical, 24 hour
smiles,measurement,value
"CC(C)=CCCC(C)=CCO [geraniol, 3,7-dimethyl-2,6-octadien-1-ol]",toxicity in iav strain compared with wild type,does not affect the toxicity
same,"% Mortality at LD50 of wild/type Drosophila melanogaster strain, iav",60.0%
"C=CCc1ccc(O)c(OC)c1 [eugenol, 2-methoxy-4-(2-propenyl)phenol]",toxicity in iav strain compared with wild type,remarkably increased
same,"% Mortality at LD50 of wild/type Drosophila melanogaster strain, iav",80.0%
"OCC=Cc1ccccc1 [cinnamic alcohol, 3-phenyl-2-propen-1-ol]",toxicity in iav strain compared with wild type,remarkably increased
same,"% Mortality at LD50 of wild/type Drosophila melanogaster strain, iav",80.0%
CCC(=O)OCCc1ccccc1 [2-phenylethyl propionate],toxicity in iav strain compared with wild type,remarkably increased
same,"% Mortality at LD50 of wild/type Drosophila melanogaster strain, iav",80.0%
"COC(=O)c1ccccc1O [methyl salicylate, 2-hydroxybenzoic acid methyl ester]",toxicity in iav strain compared with wild type,does not affect the toxicity
same,"% Mortality at LD50 of wild/type Drosophila melanogaster strain, iav",46.6%
"Cc1ccc(C(C)C)cc1 [p-cymene, methyl(1-methylethyl)benzene]",toxicity in iav strain compared with wild type,does not affect the toxicity
same,"% Mortality at LD50 of wild/type Drosophila melanogaster strain, iav",40.0%
